Measurements: the NIST ThermoML archive (doi:10.1016/j.jct.2010.10.025)

Experiment: xn = mol fraction of the nth substance listed
Conditions: 101 kPa, Liquid; for speed of sound: Sing-around technique in a fixed-path interferometer; for mass density: Vibrating tube method

CCCCCCCCCO [nonan-1-ol] + Cc1ccccc1O
Conditions	mass density, 293.15 K [kg/m3]	mass density, 313.15 K [kg/m3]	speed of sound, 293.15 K [m/s]	speed of sound, 313.15 K [m/s]
x2 = 0	827.704	813.877	1380.7	1314
x2 = 0.0747	838.281	824.298	1388	1320
x2 = 0.1411	848.105	833.982	1393.4	1325.4
x2 = 0.2087	858.578	844.312	1398.9	1330.9
x2 = 0.2614	867.121	852.733	1403.3	1335.5
x2 = 0.326	878.085	863.535	1408.9	1341.4
x2 = 0.4013	891.616	876.862	1416.1	1348.8
x2 = 0.4562	902.048	887.133	1422	1354.7
x2 = 0.5303	916.987	901.834	1430.5	1363.3
x2 = 0.5829	928.291	912.952	1437.3	1370
x2 = 0.645	942.416	926.834	1446.2	1378.7
x2 = 0.7171	960.1	944.211	1457.8	1389.8
x2 = 0.784	977.81	961.595	1470	1401.7
x2 = 0.8566	998.699	982.094	1485.3	1416.7
x2 = 0.9397	1024.88	1007.76	1505.2	1436.5

COc1ccccc1 [anisole] + CCCCCCCCCO
x1 = 1
Conditions	mass density [kg/m3]	speed of sound [m/s]
293.15 K	993.845	1427.3
313.15 K	974.966	1346.7

Cc1cccc(O)c1 [3-methylphenol] + CCCCCCCCCO
x1 = 1
Conditions	mass density [kg/m3]	speed of sound [m/s]
293.15 K	1033.99	1496.8
313.15 K	1018.06	1434.2

Cc1ccccc1O [2-methylphenol] + CCCCCCCCCO
x1 = 1
Conditions	mass density [kg/m3]	speed of sound [m/s]
293.15 K	1045.69	1521.8
313.15 K	1028.14	1453.3

CCCCCCCCCO [nonan-1-ol] + Cc1ccc(O)cc1
x2 = 0
Conditions	mass density [kg/m3]	speed of sound [m/s]
293.15 K	827.704	1380.7
313.15 K	813.877	1314

CCCCCCCCCO [nonan-1-ol] + COc1ccccc1
Conditions	mass density, 293.15 K [kg/m3]	mass density, 313.15 K [kg/m3]	speed of sound, 293.15 K [m/s]	speed of sound, 313.15 K [m/s]
x2 = 0	827.704	813.877	1380.7	1314
x2 = 0.0691	834.714	820.629	1379.8	1312
x2 = 0.1265	840.852	826.539	1379.1	1310.9
x2 = 0.2023	849.439	834.809	1378.5	1309.8
x2 = 0.2701	857.605	842.665	1378.4	1309
x2 = 0.335	865.942	850.682	1378.5	1308.5
x2 = 0.405	875.488	859.873	1379	1308.3
x2 = 0.4753	885.766	869.775	1380.2	1308.6
x2 = 0.5348	895.034	878.714	1381.6	1309.2
x2 = 0.6025	906.314	889.609	1384.2	1311.1
x2 = 0.6657	917.614	900.551	1387.5	1313.4
x2 = 0.7399	931.942	914.464	1392.7	1317.5
x2 = 0.8198	948.831	930.915	1400.4	1323.4
x2 = 0.8791	962.443	944.199	1407.4	1329
x2 = 0.9468	979.271	960.651	1417.5	1337.5

Cc1ccc(O)cc1 [4-methylphenol] + CCCCCCCCCO
Conditions	mass density, 293.15 K [kg/m3]	mass density, 313.15 K [kg/m3]	speed of sound, 293.15 K [m/s]	speed of sound, 313.15 K [m/s]
x1 = 0.0723	837.798	823.756	1387.3	1319.8
x1 = 0.1353	846.887	832.662	1392.7	1324.9
x1 = 0.2032	856.995	842.572	1398.2	1330.5
x1 = 0.2637	866.395	851.785	1403.2	1335.7
x1 = 0.3492	880.334	865.479	1410.3	1343
x1 = 0.4122	891.234	876.214	1415.5	1348.6
x1 = 0.4898	905.461	890.246	1422.7	1356.1
x1 = 0.5492	917.111	901.771	1428.7	1362.2
x1 = 0.6143	930.635	915.184	1436	1369.8
x1 = 0.6735	943.741	928.201	1443.4	1377.4
x1 = 0.7455	960.902	945.287	1453.2	1388.3
x1 = 0.8163	979.164	963.518	1464.5	1400
x1 = 0.8789	996.577	980.938	1476	1412.3
x1 = 0.9362	1013.65	998.054	1487.5	1424.4
x1 = 1	1033.99	1018.47	1502.2	1439.6

CCCCCCCCCO [nonan-1-ol] + Cc1cccc(O)c1
Conditions	mass density, 293.15 K [kg/m3]	mass density, 313.15 K [kg/m3]	speed of sound, 293.15 K [m/s]	speed of sound, 313.15 K [m/s]
x2 = 0	827.704	813.877	1380.7	1314
x2 = 0.0696	837.032	823.074	1386.7	1319.2
x2 = 0.1336	845.992	831.904	1390.8	1323.6
x2 = 0.2038	856.282	842.048	1395.6	1328.8
x2 = 0.2679	866.185	851.815	1400.4	1333.8
x2 = 0.3231	875.133	860.644	1404.9	1338.4
x2 = 0.3971	887.768	873.113	1411.3	1345
x2 = 0.4653	900.156	885.348	1417.5	1351.6
x2 = 0.5405	914.757	899.778	1425.3	1359.6
x2 = 0.6082	928.851	913.714	1432.9	1367.1
x2 = 0.6786	944.571	929.281	1441.8	1376.3
x2 = 0.7459	960.755	945.321	1451.1	1386.2
x2 = 0.8167	979.083	963.512	1461.2	1397.7
x2 = 0.8892	999.352	983.643	1474.3	1410.7
x2 = 0.9459	1016.5	1000.7	1485	1422.1
